Measurements reported in patent publication US11364209B2, “Methods and compositions for treating atopic dermatitis” (Golden Biotechnology Corporation, priority 2016, dated 2022).

Tests used:
[1] = Outside-in animal model (OVA-sensitized mice): body weight and clinical signs; type: in vivo; settings: oral doses
Protocol: BALC/c female rat in 6-8-week old is used. Each group has 6-8 rats. Blood sample was taken from the cheek of rat before sensitization. On day 1 and day 8, mice were injected intraperitoneally with 50 μg/mice of OVA-aluminum hydroxide (1:1 v/v). The mice were epicutaneously sensitized with OVA patches on day 15. OVA (100 μg) prepared in PBS was contained in a 2×2-cm patch of sterile gauze that was placed on the shaved backs of mice and secured to the skin with 3 M Tegader film followed by 3 M Coban tape to secure the gauze. After 3 days, the gauze was removed and reapplied. The procedure was repeated three times. Day 27, all the mice in the study was sacrificed and examined.
days 1 and 8 were injected OVA (sensitization), day 15 applied OVA gauze for 3 days (challenge) and rested one day. The application of OVA gauze procedure was repeated 3 times. Starting on day 14, the mice in the group were fed water.
Same procedure as group O except the mice were fed low dose (5 mg/kg BW) of exemplary compound 1.
Same procedure as group O except the mice were fed medium dose (15 mg/kg BW) of exemplary compound 1.
Same procedure as group O except the mice were fed high dose (45 mg/kg BW) of exemplary compound 1.

[2] = Metabolite obtained from urine of rats fed with Compound 1; type: in vivo; settings: urine samples of rats fed with Compound 1
Protocol: Compound 27 was determined to be 4-hydroxy-2,3-dimethoxy-6-methyl-5-(3-methyl-2-hexenoic acid)cyclohex-2-enone with molecular weight of 312 (C16 H24O6). Compound 25 which was determined as 2,3-dimethoxy-5-methyl-6-((2E,6E)-3,7,11-trimethyldodeca-2,6,10-trienyl)cyclohexa-2,5-diene-1,4-dione (molecular weight of 386.52, C24 H34 O4), was obtained from the purification process.

[3] = all treatment groups, through the study period

metabolite found in urine [2] | Compound | body weight change between all treatment groups ([1]; FIG. 1) | loss in body weight [1, 3] | observed clinical signs [1, 3]
– | COC1=C(OC)C(O)C(C/C=C(\C)CC/C=C(\C)CCC=C(C)C)C(C)C1=O (stereo not shown) [Compound 1, 4-hydroxy-2,3-dimethoxy-6-methyl-5-(3,7,11-trimethyldodeca-2,6,10-trienyl)cyclohex-2-enone] | no significant difference | did not lead to any loss in body weight | did not lead to any loss in body weight or any observed clinical signs
a metabolite of compound 1 | COC1=C(OC)C(O)C(C/C=C(\C)CCC(=O)O)C(C)C1=O (stereo not shown) [Compound 27] | – | – | –
